Source: patent publication US12497370B2, “Isoxazoline derivatives” (Elanco Tiergesundheit AG, priority 2019, dated 2025)
Like-named read-outs stand apart in the source and are kept apart here.

Tests used:
[1] = PK determination following administration to beagle dogs; type: in vivo; conditions: dog
Procedure: PK Determination Following Administration to Beagle Dogs
Behavior of single oral or intravenous dose of the desired compound was assessed in beagle dogs. The animals (n=6) received the compound by oral gavage (3 or 10 mg/kg) or intravenous dose (1 or 2 mg/kg). Blood samples were collected predose and at 0.25, 0.5, 1, 2, 4, 8, 24, 48, 72, 96, 168, 336, 504, 672, 1008, 1344, 1680, 2016, 2352, 2688, 2856 and 3024 h postdose. A portion of each whole blood sample was processed to plasma. Test article concentrations in plasma and whole blood were determined using LC-MS/MS.

[2] = tested on: fleas (Ctenocephalides felis); assay: In vitro evaluation of ingestion activity against fleas; conditions: flea ingestion test, compound in organic bovine blood (0.5% DMSO), adult fleas, percent mortality between 2 h and 48 h post infestation, read-out: EC50 (the source's name)
Procedure: In Vitro Evaluation of Ingestion Activity Against Fleas (Ctenocephalides felis)
For flea ingestion tests, serial dilutions of the compound stock were performed using DMSO to achieve the desired range for EC50 and EC90 determination. An aliquot of each compound dilution was added to organic bovine blood with a final DMSO concentration of 0.5% and placed in an artificial feeding container. Fipronil is included to serve as a positive control. Ten newly emerged unfed adult fleas, 0-7 days old Ctenocephalides felis, from a laboratory colony, were aspirated into each vial or cage. The cages for flea ingestion assays were held in a temperature-controlled artificial feeding apparatus to allow continual access to organic bovine blood containing the desired concentration of compound. Fresh aliquots of compound-spiked bovine blood were provided daily for the duration of the study. Fleas were evaluated for percent mortality at various time points between 2 h and 48 h post infestation. Fleas showing normal movement and/or jumping ability were considered viable and those showing no movement after tapping the vials were scored as dead.

[3] = in vivo, beagle dogs, single oral gavage (3 or 10 mg/kg) or intravenous dose (1 or 2 mg/kg), LC-MS/MS, read-out: Half-life (converted)
[4] = in vivo, beagle dogs, single oral gavage (3 or 10 mg/kg) or intravenous dose (1 or 2 mg/kg), LC-MS/MS, read-out: Plasma clearance (converted)

Question: With `Cc1cc(C2=NO[C@@](c3cc(Cl)c(Cl)c(Cl)c3)(C(F)(F)F)C2)sc1C(=O)NCC(=O)NCC(F)(F)F` [lotilaner, reference compound] as the molecule, how does the half-life [1, 3] read?
Answer: 25 days

Question: What about the clearance ([1]; plasma, beagle dogs, single oral gavage (3 or 10 mg/kg) or intravenous dose (1 or 2 mg/kg), LC-MS/MS, read-out: Plasma clearance (converted)) of the same molecule?
Answer: 7.5 mL/h/kg

Question: Which half-life [1, 3] does the source give for `Cc1cc(C2=NOC(c3cc(Cl)cc(Cl)c3)(C(F)(F)F)C2)ccc1C(=O)NCC(=O)NCC(F)(F)F` (stereo not drawn) [fluralaner, reference compound] here?
Answer: 12 to 15 days

Question: For `Cc1cc(C2=NOC(c3cc(C(F)(F)F)cc(Cl)c3F)(C(F)(F)F)C2)sc1C(=O)NCC(=O)NCC(F)(F)F` (stereo not drawn) [4.1 or 4.2], which clearance ([1]; beagle, in vivo) is on record?
Answer: 2.36 mL/h/kg

Question: And the half-life ([1]; beagle, in vivo)?
Answer: 44 days

Question: What does the source list for `CS(=O)(=O)CC(=O)N1CC2(C1)OCc1cc(C3=NO[C@@](c4cc(Cl)c(F)c(Cl)c4)(C(F)(F)F)C3)ccc12` [sarolaner, reference compound]?
Answer: half-life [1, 3]: 12 days; clearance [1, 4]: 7.21 mL/h/kg

Question: With `O=C(CNC(=O)c1ccc(C2=NOC(c3cc(Cl)cc(C(F)(F)F)c3)(C(F)(F)F)C2)c2ccccc12)NCC(F)(F)F` (stereo not drawn) [afoxolaner, reference compound] as the molecule, how does the half-life [1, 3] read?
Answer: 15.5 days

Question: And the clearance [1, 4]?
Answer: 4.96 mL/h/kg

Question: For `O=C(CNC(=O)c1ccc(C2=NOC(c3cc(C(F)(F)F)cc(Cl)c3F)(C(F)(F)F)C2)c2ccccc12)NCC(F)(F)F` (stereo not drawn) [2.1 or 2.2], which LC50 [2] is on record?
Answer: < 1 µg/mL

Question: What about the clearance ([1]; beagle, in vivo) of the same molecule?
Answer: 2.31 mL/h/kg

Question: And the half-life ([1]; beagle, in vivo)?
Answer: 45 days

Question: With `Cc1cc(C2=NOC(c3cc(C(F)(F)F)cc(Cl)c3F)(C(F)(F)F)C2)ccc1C(=O)NCC1(S(C)(=O)=O)CC1` (single isomer, unassigned) [Example 3.83, 2-methyl-N-[(1-methylsulfonylcyclopropyl)methyl]-4-[(5R or S)-5-[3-chloro-2-fluoro-5-(trifluoromethyl)phenyl]-5-(trifluoromethyl)-4H-isoxazol-3-yl]benzamide] as the molecule, how does the LC50 [2] read?
Answer: < 1 µg/mL

Question: For `Cc1cc(C2=NOC(c3cc(C(F)(F)F)cc(Cl)c3F)(C(F)(F)F)C2)ccc1C(=O)NN1CCN(CC(F)(F)F)C1=O` (racemic) [Example 3.26, 2-methyl-N-[2-oxo-3-(2,2,2-trifluoroethyl)imidazolidin-1-yl]-4-[(5RS)-5-[3-chloro-2-fluoro-5-(trifluoromethyl)phenyl]-5-(trifluoromethyl)-4H-isoxazol-3-yl]benzamide], which LC50 [2] is on record?
Answer: < 3 µg/mL

Question: With `Cc1cc(C2=NOC(c3cc(C(F)(F)F)cc(Cl)c3F)(C(F)(F)F)C2)ccc1C(=O)NC1CC(F)C1` (single isomer, unassigned) [Example 3.50, N-(3-fluorocyclobutyl)-2-methyl-4-[(5R or S)-5-[3-chloro-2-fluoro-5-(trifluoromethyl)phenyl]-5-(trifluoromethyl)-4H-isoxazol-3-yl]benzamide] as the molecule, how does the LC50 [2] read?
Answer: < 1 µg/mL

Question: With `Cc1cc(C2=NOC(c3cc(C(F)(F)F)cc(Cl)c3F)(C(F)(F)F)C2)ccc1C(=O)Nc1cnn(CC#N)c1` (single isomer, unassigned) [Example 3.75, N-[1-(cyanomethyl)pyrazol-4-yl]-2-methyl-4-[(5S or R)-5-[3-chloro-2-fluoro-5-(trifluoromethyl)phenyl]-5-(trifluoromethyl)-4H-isoxazol-3-yl]benzamide] as the molecule, how does the LC50 [2] read?
Answer: < 3 µg/mL

Question: With `Cc1cc(C2=NOC(c3cc(C(F)(F)F)cc(Cl)c3F)(C(F)(F)F)C2)ccc1C(=O)N[C@H]1CC[C@@H](C#N)CC1` (single isomer, unassigned) [Example 3.91, N-(cis-4-cyanocyclohexyl)-2-methyl-4-[(5R or S)-5-[3-chloro-2-fluoro-5-(trifluoromethyl)phenyl]-5-(trifluoromethyl)-4H-isoxazol-3-yl]benzamide] as the molecule, how does the LC50 [2] read?
Answer: < 1 µg/mL

Question: With `Cc1cc(C2=NOC(c3cc(C(F)(F)F)cc(Cl)c3F)(C(F)(F)F)C2)ccc1C(=O)N[C@@H]1CN(CC(F)(F)F)C1=O` (single isomer, unassigned) [Example 3.73, 4-[(5R or S)-5-[3-chloro-2-fluoro-5-(trifluoromethyl)phenyl]-5-(trifluoromethyl)-4H-isoxazol-3-yl]-2-methyl-N-[(3R)-2-oxo-1-(2,2,2-trifluoroethyl)azetidin-3-yl]benzamide] as the molecule, how does the LC50 [2] read?
Answer: < 1 µg/mL

Question: With `Cc1cc(C2=NOC(c3cc(C(F)(F)F)cc(Cl)c3F)(C(F)(F)F)C2)ccc1C(=O)NC1CN(C(N)=O)C1` (single isomer, unassigned) [Example 3.71, 3-[[2-methyl-4-[(5S or R)-5-[3-chloro-2-fluoro-5-(trifluoromethyl)phenyl]-5-(trifluoromethyl)-4H-isoxazol-3-yl]benzoyl]amino]azetidine-1-carboxamide] as the molecule, how does the LC50 [2] read?
Answer: < 1 µg/mL

Question: Which LC50 [2] does the source give for `CO[C@H]1C[C@@H](NC(=O)c2ccc(C3=NOC(c4cc(C(F)(F)F)cc(Cl)c4F)(C(F)(F)F)C3)cc2C)C1` (mixture of isomers) [Example 3.47, 4-[(5RS)-5-[3-chloro-2-fluoro-5-(trifluoromethyl)phenyl]-5-(trifluoromethyl)-4H-isoxazol-3-yl]-N-(cis-3-methoxycyclobutyl)-2-methyl-benzamide] here?
Answer: < 3 µg/mL

Question: With `CS(=O)(=O)CC(=O)N1CC2(C1)OCc1cc(C3=NO[C@](c4cc(C(F)(F)F)cc(C(F)F)c4F)(C(F)(F)F)C3)ccc12` [1.1 or 1.2] as the molecule, how does the LC50 [2] read?
Answer: < 3 µg/mL

Question: What about the clearance ([1]; beagle, in vivo) of the same molecule?
Answer: 2.36 mL/h/kg

Question: And the half-life ([1]; beagle, in vivo)?
Answer: 36 days

Question: Which LC50 [2] does the source give for `CCN1C[C@H](NC(=O)c2ccc(C3=NOC(c4cc(C(F)(F)F)cc(Cl)c4F)(C(F)(F)F)C3)cc2C)CC1=O` (single isomer, unassigned) [Example 3.87, 4-[(5R or S)-5-[3-chloro-2-fluoro-5-(trifluoromethyl)phenyl]-5-(trifluoromethyl)-4H-isoxazol-3-yl]-N-[(3R)-1-ethyl-5-oxo-pyrrolidin-3-yl]-2-methyl-benzamide] here?
Answer: < 1 µg/mL

Question: For `Cc1cc(C2=NOC(c3cc(C(F)(F)F)cc(Cl)c3F)(C(F)(F)F)C2)ccc1C(=O)NCC(=O)NCC(F)(F)F` (stereo not drawn) [3.1 or 3.2], which LC50 [2] is on record?
Answer: < 1 µg/mL

Question: What about the clearance ([1]; beagle, in vivo) of the same molecule?
Answer: 2.55 mL/h/kg

Question: And the half-life ([1]; beagle, in vivo)?
Answer: 50 days

Question: For `Cc1cc(C2=NOC(c3cc(C(F)(F)F)cc(Cl)c3F)(C(F)(F)F)C2)ccc1C(=O)N[C@H]1C[C@@H](S(C)(=O)=O)C1` (single isomer, unassigned) [Example 3.49, 4-[(5R or S)-5-[3-chloro-2-fluoro-5-(trifluoromethyl)phenyl]-5-(trifluoromethyl)-4H-isoxazol-3-yl]-2-methyl-N-((cis)3-methylsulfonylcyclobutyl) benzamide], which LC50 [2] is on record?
Answer: < 1 µg/mL

Question: Which LC50 [2] does the source give for `Cc1cc(C2=NOC(c3cc(C(F)(F)F)cc(Cl)c3F)(C(F)(F)F)C2)ccc1C(=O)N[C@@H]1CNC(=O)C1` (single isomer, unassigned) [Example 3.84, 4-[(5R or S)-5-[3-chloro-2-fluoro-5-(trifluoromethyl)phenyl]-5-(trifluoromethyl)-4H-isoxazol-3-yl]-2-methyl-N-[(3S)-5-oxopyrrolidin-3-yl]benzamide] here?
Answer: < 1 µg/mL

Question: Which LC50 [2] does the source give for `Cc1cc(C2=NOC(c3cc(C(F)(F)F)cc(Cl)c3F)(C(F)(F)F)C2)ccc1C(=O)Nc1cccc(C#N)c1` (single isomer, unassigned) [Example 3.81, N-(3-cyanophenyl)-2-methyl-4-[(5S or R)-5-[3-chloro-2-fluoro-5-(trifluoromethyl)phenyl]-5-(trifluoromethyl)-4H-isoxazol-3-yl]benzamide] here?
Answer: < 3 µg/mL
